Patent US6906205B2, “Spiro and dispiro 1,2,4-trioxolane antimalarials” (Medicines for Malaria Venture MMV, priority 2002, dated 2005)

Test system: ANKA strain of P. berghei
Assay: single dose STI in vivo screen in infected mice
Set-up: species or system Plasmodium berghei
Settings: for Activity (%) po / Activity (%) sc / Activity (%) SSVpo / Activity (%) 3 mg/kg SSV po / Activity (%) 10 mg/kg SSV po: percent reduction in parasitemia day 3 post-infection; for Activity (%) po / Survival (days) po: single 10 mg/kg po in 3% ethanol and 7% Tween 80; for Activity (%) po / Activity (%) sc / Activity (%) SSVpo: mice; for Activity (%) sc / Survival (days) sc: single 10 mg/kg sc in 3% ethanol and 7% Tween 80; for Survival (days) po / Survival (days) sc / Survival (days) SSVpo: untreated control 5.6 ± 0.3; for Activity (%) SSVpo: single po dose in standard suspending vehicle (SSV); for Survival (days) SSVpo: single po dose in SSV; for Activity (%) 10 mg/kg SSV po / Survival (days) 10 mg/kg SSV po: single 10 mg/kg po in SSV
Protocol: In the single dose STI in vivo screen, Moro SPF or NMRI mice infected with the ANKA strain of P. berghei (groups of 3-5 mice) were treated on day one post-infection with trioxolanes dissolved or suspended in 3% ethanol and 7% Tween 80. […] SSV consists of 0.5% w/v CMC, 0.5% v/v benzyl alcohol, 0.4% v/v Tween 80, and 0.9% w/v sodium chloride in water. Antimalarial activity was measured by percent reduction in parasitemia on day three post-infection and survival times compared to an untreated control group. Survival to day 30 post-infection is considered to be a cure. […] Other factors influencing antimalarial activity include the stability of carbon radicals formed by β-scission subsequent to the initial electron transfer to the peroxide bond and the influence of steric effects remote from the peroxide bond on the interactions between carbon radicals and potential drug targets.

Structure (SMILES) | Activity (%) po | Activity (%) sc | Survival (days) po | Survival (days) sc | Activity (%) 3 mg/kg SSV po (single 3 mg/kg po in SSV) | Activity (%) 10 mg/kg SSV po | Survival (days) 10 mg/kg SSV po | also measured
CCOC(=O)CCC1CCCCC12OOC1(O2)C2CC3CC(C2)CC1C3 (centres unmarked) [OZ08] | 99.7% | 99.9% | 8.0 days | 9.7 days |  |  |  | 
FC(F)(F)c1cccc(C2(c3cccc(C(F)(F)F)c3)OOC3(O2)C2CC4CC(C2)CC3C4)c1 (centres unmarked) [OZ46] | 99% | 62% | 7.7 days | 6.0 days |  |  |  | 
FC(F)(F)c1ccc(C2CCC3(CC2)OOC2(O3)C3CC4CC(C3)CC2C4)cc1 (centres unmarked) [OZ48] | 99.8% | 42% | 8.7 days | 6.3 days |  |  |  | 
CCOC(=O)CCC(=O)N1CCC2(CC1)OOC1(O2)C2CC3CC(C2)CC1C3 (centres unmarked) [OZ53] | 9% | 58% | 6.0 days | 6.3 days |  |  |  | 
O=C(C[n+]1ccccc1)NN=C1CCC2(CC1)OOC1(O2)C2CC3CC(C2)CC1C3.[Cl-] (centres unmarked) [OZ55] | 45% | 97% | 6.0 days | 7.3 days |  |  |  | 
O=C(c1ccncc1)N1CCC2(CC1)OOC1(O2)C2CC3CC(C2)CC1C3 (centres unmarked) [OZ100] | 61% | 80% | 6.7 days | 7.0 days |  |  |  | Activity (%) SSVpo: 36%; Survival (days) SSVpo: 6.3 days
O=C(COc1ccc(Cl)cc1)N1CCC2(CC1)OOC1(O2)C2CC3CC(C2)CC1C3 (centres unmarked) [OZ101] | 44% | 99.97% | 6.3 days | 13 days |  |  |  | Activity (%) SSVpo: 0%; Survival (days) SSVpo: 5.3 days
O=C(Nc1ccccc1)N1CCC2(CC1)OOC1(O2)C2CC3CC(C2)CC1C3 (centres unmarked) [OZ102] | 92% | 99.97% | 7.0 days | 19.7 days |  |  |  | Activity (%) SSVpo: 73%; Survival (days) SSVpo: 6.7 days
CC(C)(O)[C@H]1CC[C@]2(CC1)OOC1(O2)C2CC3CC(C2)CC1C3 (some centres unmarked) [OZ108] | 0/0/0% | 0/0/0% |  |  |  |  |  | Activity (%) SSVpo: 0/0/0%; Survival (days) SSVpo: 5.0 days
OC[C@H]1CC[C@]2(CC1)OOC1(O2)C2CC3CC(C2)CC1C3 (some centres unmarked) [OZ119] |  |  |  |  |  |  |  | Survival (days) SSVpo: 8.0 days
O=C1c2ccccc2C(=O)N1[C@H]1CC[C@]2(CC1)OOC1(O2)C2CC3CC(C2)CC1C3 (some centres unmarked) [OZ136] | 0/0/0% | 0/0/0% | 6.0/6.0/6.0 days | 6.0/6.0/6.0 days |  |  |  | Activity (%) SSVpo: 0/0/0%; Survival (days) SSVpo: 6.0/6.0/6.0 days
N[C@H]1CC[C@]2(CC1)OOC1(O2)C2CC3CC(C2)CC1C3 (some centres unmarked) [OZ137] | 0% | 61% |  |  |  |  |  | Activity (%) SSVpo: 6%; Survival (days) SSVpo: 6.3 days
Cc1ccc(NC(=O)N2CCC3(CC2)OOC2(O3)C3CC4CC(C3)CC2C4)cc1 (centres unmarked) [OZ142] | 0% | 99.98% | 6.0 days | 14.3 days |  |  |  | Activity (%) SSVpo: 2%; Survival (days) SSVpo: 6.3 days
O=C1c2ccccc2C(=O)N1C[C@H]1CC[C@]2(CC1)OOC1(O2)C2CC3CC(C2)CC1C3 (some centres unmarked) [OZ146] | 62% | 91% |  |  |  |  |  | Activity (%) SSVpo: 40%; Survival (days) SSVpo: 6.3 days
O=C(N1CCOCC1)N1CCC2(CC1)OOC1(O2)C2CC3CC(C2)CC1C3 (centres unmarked) [OZ188] | 93% | 99.87% | 8.7 days | 9.0 days |  |  |  | Activity (%) SSVpo: 98%; Survival (days) SSVpo: 10.0 days
O=C(Nc1ccc(Cl)cc1)N1CCC2(CC1)OOC1(O2)C2CC3CC(C2)CC1C3 (centres unmarked) [OZ192] | 38% | 99.98% | 6.0 days | 13.7 days |  |  |  | Activity (%) SSVpo: 45%; Survival (days) SSVpo: 7.0 days
O=C(NC[C@H]1CC[C@]2(CC1)OO[C@]1(O2)C2CC3CC(C2)CC1C3)N1CCOCC1 [OZ272] |  |  |  |  | 49% | 98% |  | 
O=C(NC[C@H]1CC[C@]2(CC1)OOC1(O2)C2CC3CC(C2)CC1C3)c1ccccc1O (some centres unmarked) [OZ280] |  |  |  |  |  | 0/ND % | 5.7ND days | 
O=C(NC[C@H]1CC[C@]2(CC1)OOC1(O2)C2CC3CC(C2)CC1C3)c1ccc(O)nc1 (some centres unmarked) [OZ282] |  |  |  |  | 53% |  | 8.3 days | 
Nc1ncccc1C(=O)NC[C@H]1CC[C@]2(CC1)OOC1(O2)C2CC3CC(C2)CC1C3 (some centres unmarked) [OZ284] |  |  |  |  | 61% | 97% | 9.0 days | 

Structure (SMILES) | Activity (%) po | Activity (%) sc | Survival (days) po | Survival (days) sc | Activity (%) 3 mg/kg SSV po (single 3 mg/kg po in SSV) | Activity (%) 10 mg/kg SSV po | Survival (days) 10 mg/kg SSV po | also measured
CCNC(=O)NC[C@H]1CC[C@]2(CC1)OO[C@]1(O2)C2CC3CC(C2)CC1C3 [OZ291] |  |  |  |  | 34% | 98% | 8.0 days | 
c1cncc(NC[C@H]2CC[C@]3(CC2)OO[C@]2(O3)C3CC4CC(C3)CC2C4)c1 [OZ293] |  |  |  |  | 77% |  | 8.8 days | 
NS(=O)(=O)c1ccc(NC[C@H]2CC[C@]3(CC2)OO[C@]2(O3)C3CC4CC(C3)CC2C4)cc1 [OZ298] |  |  |  |  | 98% | 99.95% | 9.4 days | 
O=CN1CCN(C[C@H]2CC[C@]3(CC2)OO[C@]2(O3)C3CC4CC(C3)CC2C4)CC1 [OZ303] |  |  |  |  | 69% | 99.01% | 8.6 days | 
O=C(NC[C@H]1CC[C@]2(CC1)OO[C@]1(O2)C2CC3CC(C2)CC1C3)c1ccccn1 [OZ304] |  |  |  |  | 61% | 98% | 8.2 days | 
CS(=O)(=O)N(CC(N)=O)C[C@H]1CC[C@]2(CC1)OO[C@]1(O2)C2CC3CC(C2)CC1C3 [OZ308] |  |  |  |  | 30% | 86% | 7.8 days | 
Cn1ccnc1S(=O)(=O)C[C@H]1CC[C@]2(CC1)OO[C@]1(O2)C2CC3CC(C2)CC1C3 [OZ310] |  |  |  |  | 38% | 81% | 7.8 days | 
NC(=O)C1CCN(C(=O)C[C@H]2CC[C@]3(CC2)OO[C@]2(O3)C3CC4CC(C3)CC2C4)CC1 [OZ311] |  |  |  |  | 40% | 80% | 8.6 days | 
O=C(C[C@H]1CC[C@]2(CC1)OO[C@]1(O2)C2CC3CC(C2)CC1C3)N1CCN(c2ncccn2)CC1 [OZ314] |  |  |  |  | 11% | 13% |  | 
Cc1ccc(S(=O)(=O)O)cc1.N[C@H]1CC[C@H](NC(=O)C[C@H]2CC[C@]3(CC2)OO[C@]2(O3)C3CC4CC(C3)CC2C4)CC1 [OZ315] |  |  |  |  | 92% |  |  | 
O=C(CNC(=O)c1cccnc1)NC[C@H]1CC[C@]2(CC1)OO[C@]1(O2)C2CC3CC(C2)CC1C3 [OZ316] |  |  |  |  | 7% | 69% | 10.0 days | 
CCOC(=O)CCNCC1CCC2(CC1)OOC1(O2)C2CC3CC(C2)CC1C3.Cc1ccc(S(=O)(=O)O)cc1 (centres unmarked) [OZ318] |  |  |  |  | 29% | 88% |  | 
NC(=O)c1cncn1C[C@H]1CC[C@]2(CC1)OO[C@]1(O2)C2CC3CC(C2)CC1C3 [OZ321] |  |  |  |  | 64% | 99.77% | 14.0 days | 
O=S(=O)(C[C@H]1CC[C@]2(CC1)OO[C@]1(O2)C2CC3CC(C2)CC1C3)c1cccc[n+]1[O-] [OZ324] |  |  |  |  |  | 60% |  | 
Cn1nnnc1SC[C@H]1CC[C@]2(CC1)OO[C@]1(O2)C2CC3CC(C2)CC1C3 [OZ331] |  |  |  |  | 66% | 99.47% | 9.0 days | 
Cn1nnnc1S(=O)(=O)C[C@H]1CC[C@]2(CC1)OO[C@]1(O2)C2CC3CC(C2)CC1C3 [OZ332] |  |  |  |  | 0% | 8% |  | 
O=C(NC[C@H]1CC[C@]2(CC1)OO[C@]1(O2)C2CC3CC(C2)CC1C3)[C@@H]1CCCN1 [OZ337] |  |  |  |  | 97% | 99.92% | 8.6 days | Survival (days) 3 mg/kg SSV po (single 3 mg/kg po in SSV): 11.6 days
N[C@H]1CCN(C(=O)C[C@H]2CC[C@]3(CC2)OO[C@]2(O3)C3CC4CC(C3)CC2C4)C1 [OZ338] |  |  |  |  | 99.80% | 99.93% | 9.8 days | 
N=C(N)NC(=O)C[C@H]1CC[C@]2(CC1)OO[C@]1(O2)C2CC3CC(C2)CC1C3 [OZ341] |  |  |  |  | 32% | 97% | 8.0 days | 
O=C(C[C@H]1CC[C@]2(CC1)OO[C@]1(O2)C2CC3CC(C2)CC1C3)N1CCS(=O)(=O)CC1 [OZ342] |  |  |  |  | 0% | 27% | 6.8 days | 
